According to patent publication US10563171B2, “Method for inducing differentiation of pluripotent stem cells into germ cells” (Kyoto University, priority 2015, dated 2020):

How the values were obtained:
[1] = test system: BTAG 585B1-868 hiPSCs; test: Induction of iMeLCs from hiPSCs having induction capacity into BTAG positive cells (FACS of BTAG(+) cells); assay type: cell-based, human
Experimental: (§1) Initial mesoderm-like cells (iMeLCs) were induced by seeding hiPSCs maintained in StemFit™ in a 12 well plate coated with human plasma fibronectin (Millipore, FC010) at 1.0-2.0×10^5 cells per well in GK15 medium [GMEM containing 15% KSR, 0.1 mM NEAA, 2 mM L-glutamine, 1 mM sodium pyruvate and 0.1 mM 2-mercaptoethanol (Life Technologies)] containing 50 ng/ml activin A, 3 μM CHIR99021 and 10 μM ROCK inhibitor (Y-27632; Wako Pure Chemical Industries). The hiPSCs were induced by seeding in a low-cell-binding V-bottom 96 wellplate (Thermo, 81100574) at 3.0×10^3 cells per well in GK15 added with 1000 U/ml LlF (Millipore, #LIF1005), 200 ng/ml BMP 4,100 ng/ml SCF (R&D Systems, 455-MC), 50 ng/ml EGF (R&D Systems, 236-EG), and 10 μM ROCK inhibitor. For investigation of conditions and induction of iMeLCs or hPGCLC, PD173074 (StemGent, #04-0008) or LDN193189 (StemGent, #04-0074) was respectively added. Other than the above, WNT3A (R&D Systems, 5036-WN) was used instead of CHIR99021, and BMP2 (R&D Systems, 355-BM), BMP7 (R&D Systems, 354-BP), or BMP8A (R&D Systems, 1073-BP) was used instead of BMP4.
(§2) Floating aggregates containing hPGCLCs were separated by treating with 0.05% Trypsin-EDTA/PBS at 37° C. for 10 min. After washing with PBS containing FBS and 0.1% BSA, the cell suspension was filtered by a cell strainer (BD Biosciences) and centrifuged to remove cell aggregates. The collected cells were suspended in FACS buffer (0.1% BSA in PBS) and analyzed by a flow cytometer (ARIA III; BD Biosciences). For the analysis of hPGCLCs or hiPSCs, the separated cells were stained with APC-conjugated anti-human CD326 (EpCAM), BV421-conjugated anti-human/mouse CD49f, PE-conjugated anti-TRA-1-60, or FITC-conjugated anti-SSEA-4. Furthermore, intracellular staining using Alexa fluor 647-conjugated anti-OCT3/4, Alexa Fluor 647-conjugated anti-NANOG or V450-conjugated anti-SOX2 was performed using BD cytofix/Cytoferm Fixation/Permeabilization kit (BD, 554714) and according to the Manufacturer's instructions.

[2] = test system: iMeLCs; test: Induction of BTAG positive cells (hPGCLCs) from iMeLCs in floating aggregates; assay type: cell-based, human; settings: for role in induction of BTAG positive cells from iMeLCs: combination of BMP4, LIF, SCF and EGF changed, FIG. 11A-D
Experimental: as §1, §2

Molecule: CCN(CC)CCCCNc1ncc2cc(-c3cc(OC)cc(OC)c3)c(NC(=O)NC(C)(C)C)nc2n1 [PD173074, reference compound]
- number of BTAG-positive cells per cell aggregate ([1]; FGFR signaling inhibited during induction of iMeLCs, FIG. 10G, 10H): increased

Molecule: EGF: epithelial cell growth factor
- role in induction of BTAG positive cells from iMeLCs [2]: maintaining rather than inducing

Molecule: LIF: leukemia inhibitory factor
- role in induction of BTAG positive cells from iMeLCs [2]: maintaining rather than inducing

Molecule: SCF: stem cell factor
- role in induction of BTAG positive cells from iMeLCs [2]: maintaining rather than inducing

Molecule: Cc1c[nH]c(-c2cnc(NCCNc3ccc(C#N)cn3)nc2-c2ccc(Cl)cc2Cl)n1 [CHIR, 6-[2-[4-(2,4-Dichlorophenyl)-5-(4-methyl-1H-imidazol-2-yl)pyrimidin-2-ylamino]ethylamino]pyridine-3-carbonitrile, reference compound]
- concentration essential for the induction of iMeLCs having induction capacity into BTAG positive cells ([1]; concentration changed during induction of iMeLC from hiPSCs, FIG. 10C): 3 to 5 µM

Molecule: bFGF: basic fibroblast growth factor
- effect of signaling on iMeLCs induction ([1]; added during induction of iMeLC, FIG. 10D, 10E): acts negatively

Molecule: c1ccc2c(-c3cnn4cc(-c5ccc(N6CCNCC6)cc5)cnc34)ccnc2c1 [LDN193189, reference compound]
- effect of BMP4 on BTAG positive cell induction in presence of ALK2/3 inhibitor ([2]; FIG. 11B): blocked
